Test results reported in article PMC9728921, “Characterization of a KDM5 small molecule inhibitor with antiviral activity against hepatitis B virus” (PLOS ONE, 2022).
Read-outs that look alike come from different tables or passages of the source.

Assays:
[1] = Cytotoxicity CC50, PBMC; type: cell-based; details: human, PBMC (peripheral blood mononuclear cells)
Excerpt: (§1) a Values represent the geometric mean and multiplicative standard deviation of 3 – 5 primary human hepatocyte (PHH) donors or 5 – 10 independent experiments.
(§2) b MT-4: human T-lymphoblastoid cell line; PBMC: peripheral blood mononuclear cell; Gal-HepG2: galactose adapted human hepatoblastoma cell line; Huh-7: human hepatoma cell line; Gal-PC3: galactose adapted human prostate carcinoma cell line; MRC-5: Medical Research Council 5 embryonal lung fibroblast; NRVM: neonatal rat ventricular cardiomyocytes

[2] = Cytotoxicity CC50, Gal-HepG2; type: cell-based; details: human, Gal-HepG2 cells (galactose adapted hepatoblastoma cell line)
Excerpt: as §1, §2

[3] = Cytotoxicity CC50, Huh-7; type: cell-based; details: human, Huh-7 cells (hepatoma cell line)
Excerpt: as §1, §2

[4] = Cytotoxicity CC50, PHH; type: cell-based; details: human, primary human hepatocytes (PHH)
Excerpt: as §1, §2

[5] = tested on: PHH or a panel of human cells; test: Cytotoxicity in PHH or in a panel of human cells (summary); type: cell-based; details: concentrations up to 57 μM
[6] = tested on: HBV; test: Extracellular HBV DNA (vDNA) by qPCR in HBV-infected PHH; type: cell-based; details: Hepatitis B virus
Experimental: Approximately 24 hours after plating, PHH were infected with HepAD38-derived GTD virus at 500 viral genome equivalents per cell in maintenance medium supplemented with 4% PEG 8000 (Promega, Madison, WI; V3011). For patient sera infections, PHH were infected with 6 μl of patient sera in maintenance medium supplemented with 4% PEG 8000. Infections were allowed to proceed for 20–24 hours before removing remaining extracellular virions by washing with maintenance medium three times. […]
Viral DNA from PHH supernatants was purified using the Qiagen DNeasy 96 kit (Germantown, MD; 69582) following the manufacturer’s recommended protocol. Briefly, 50 μl of supernatant was collected, lysed with an equal volume of Qiagen ATL buffer containing 10% proteinase K, and then incubated at 56°C for 10 minutes. Lysates were then mixed with 100 μl of […] containing ethanol, transferred into the DNeasy 96 well plate, and placed onto a vacuum manifold (Qiagen; 19504). The vacuum was applied to bind DNA to the DNeasy membrane while contaminants passed through. DNA bound to the membrane was washed first with 500 μl of AW1followed by 500 μl of AW2 buffer. After washing, plates were centrifuged (Sigma Model 4-16S) at 6000 rpm for 2 minutes. DNA was then eluted with 100 μl of pre-warmed AE buffer by a final centrifugation step of 6000 rpm for 2 minutes.
Quantification of vDNA by qPCR (quantitative polymerase chain reaction) amplification of the HBVX region of the genome was performed by combining 5 μl of DNA, 900 nM of forward primer (5’[…] 3’), 900 nM of reverse primer (5’[…]-3’), 0.2 μM TaqMan probe (5’ [6FAM] […] [NFQ-MGB] 3’), and 1X TaqMan Fast Advanced Master Mix (Thermo Fisher Scientific; 4444557) for a total reaction volume of 20 μl in 96-well PCR plates (Thermo Fisher Scientific; 4346906). qPCR was carried out on a real-time PCR system (Thermo Fisher Scientific; QuantiStudio 7 Flex) using the following conditions: 95°C for 20 seconds, followed by 40 cycles of 95°C for 1 second and 60°C for 20 second. A plasmid containing the HBV full genome was used for the standard curve.
Antiviral activity of test compounds was determined from vRNA, vDNA, HBeAg, and HBsAg data by comparing compound-treated PHH to DMSO (vehicle)-treated PHH to generate a percent of DMSO control value (% DMSO control). The % DMSO control was calculated by the following equation: %DMSOControl=100xXc/XD where Xc is the signal from the compound-treated PHH and XD is the signal from the DMSO-treated PHH. The % DMSO control for vRNA, vDNA, HBeAg, HBsAg, GAPDH, or RPLP0 was plotted versus the log of each compound concentration in GraphPad Prism (version 6; Graphpad Software, LaJolla, CA) to generate dose-response curves. […] Dose-response curves were fitted using the nonlinear regression equation “log(agonist) versus response–variable slope (four parameters)” in GraphPad Prism to determine EC50 values.

[7] = tested on: HBV; test: HBV antiviral activity in HBV-infected PHH (overall; HBsAg and HBeAg over time); type: cell-based, Hepatitis B virus
Experimental: Approximately 24 hours after plating, PHH were infected with HepAD38-derived GTD virus at 500 viral genome equivalents per cell in maintenance medium supplemented with 4% PEG 8000 (Promega, Madison, WI; V3011). For patient sera infections, PHH were infected with 6 μl of patient sera in maintenance medium supplemented with 4% PEG 8000. Infections were allowed to proceed for 20–24 hours before removing remaining extracellular virions by washing with maintenance medium three times.
For the pulse dose regimen, medium containing compound was removed after two hours incubation and replaced with fresh maintenance medium every three to four days. Cells in the pulse dose experiment received only one dose of compound (Day = 0).
Hepatitis B e antigen (HBeAg) and Hepatitis B surface antigen (HBsAg) were detected in culture media at the indicated time by ELISA or electrochemiluminescence assay (MSD). The HBeAg and HBsAg ELISAs were performed using the HBeAg ELISA kit (International Immuno-Diagnostics, Foster City, CA) and HBsAg ETI-MAK-2 plus kit (DiaSorin, Stillwater, MN), respectively according to the manufacturer’s instructions. Concentrations were calculated by interpolation from standard curves with purified HBeAg and HBsAg. The MSD assay was performed according to the manufacturer’s instructions (Meso Scale Diagnostics, Rockville, MD). Briefly, cultured supernatants were inactivated with 0.5% Triton X-100 (30 minutes at 37°C) and then transferred into plates pre-spotted with both an anti-HBeAg antibody (Genway Bio, San Diego, CA) and a custom anti-HBsAg antibody. The plates were then incubated for two hours at room temperature with gentle shaking, followed by a wash step in PBS with 0.5% Tween. MSD sulfate tags anti-A and anti-B (1 μg/mL each) were then added to the wells and the plates incubated for a further two hours at room temperature with gentle shaking, followed by another wash step in PBS with 0.5% Tween. A 2X solution of MSD T Buffer Read was then added and the plate was read on a Sector Imager 6000 plate scanner.

[8] = read-out: vDNA EC50, PHH donor BCD, HBV GTD, treated every three to four days for 14 days
[9] = read-out: vDNA EC50, PHH donor Hu276, HBV GTD, treated every three to four days for 14 days
[10] = read-out: vDNA EC50, PHH donor Hu349, HBV GTD, treated every three to four days for 14 days
[11] = read-out: vDNA EC50, PHH donor Hu4167, HBV GTD, treated every three to four days for 14 days
[12] = read-out: vDNA EC50, PHH donor Hu7272, HBV GTD, treated every three to four days for 14 days
[13] = read-out: vDNA EC50, PHH donor Hu8130, HBV GTD, treated every three to four days for 14 days
[14] = read-out: vDNA EC50, PHH donor Hu8181, HBV GTD, treated every three to four days for 14 days
[15] = 10 μM every three to four days, three PHH donors

## CCN(CCN(C)C)C(=O)CNCc1cc(C(=O)O)ccn1 [GS-080]
[1]
  CC50: > 44000 nM
[2]
  CC50: > 44000 nM
[3]
  CC50: > 44000 nM
[4]
  CC50: > 50000 nM
[5]
  measurable cytotoxicity: neither GS-5801 nor GS-080 had measurable cytotoxicity

## CCOC(=O)c1cc(CNCC(=O)N(CC)CCN(C)C)ncc1Br [GS-420]
[6]; [8]
  EC50: > 10000 nM
[6]; [9]
  EC50: > 10000 nM
[6]; [10]
  EC50: > 10000 nM
[6]; [11]
  EC50: > 10000 nM
[6]; [12]
  EC50: > 10000 nM
[6]; [13]
  EC50: > 10000 nM
[6]; [14]
  EC50: > 10000 nM
[7]; concentrations up to 10 μM
  HBV antiviral activity in PHH: did not exhibit HBV antiviral activity

## CCOC(=O)c1ccnc(CNCC(=O)N(CC)CCN(C)C)c1 [GS-5801]
[6]; 336 h, read-out: EC50 range across genotypes, extracellular HBV DNA, range across genotypes, 14 days of dosing
  EC50: 79 to 250 nM
[6]; 336 h, read-out: EC50 range for extracellular DNA, range over the seven PHH donors tested, HBV GTD, Day 14
  EC50: 7.1 to 1300 nM
[6]; 336 h, read-out: median EC50, extracellular HBV DNA, median across HBV genotypes, 14 days of dosing
  EC50: 200 nM
[6]; [8]
  EC50: 7.1 nM
[6]; [9]
  EC50: 70 nM
[6]; [10]
  EC50: 230 nM
[6]; [11]
  EC50: 110 nM
[6]; [12]
  EC50: 1100 nM
[6]; [13]
  EC50: 1300 nM
[6]; [14]
  EC50: 140 nM
[6]; read-out: vDNA EC50, PHH infected with HBV GTA, treated every three to four days for 13 days
  EC50: 170 nM
[6]; read-out: vDNA EC50, PHH infected with HBV GTC, treated every three to four days for 13 days
  EC50: 79 nM
[6]; read-out: vDNA EC50, PHH infected with HBV GTD, treated every three to four days for 13 days (Table 3)
  EC50: 220 nM
[6]; read-out: vDNA EC50, PHH infected with HBV GTE, treated every three to four days for 13 days
  EC50: 250 nM
[1]
  CC50: > 44000 nM
[2]
  CC50: > 44000 nM
[3]
  CC50: > 44000 nM
[4]
  CC50: > 50000 nM
[5]
  measurable cytotoxicity: neither GS-5801 nor GS-080 had measurable cytotoxicity
[7]; [15]
  time course throughout which antiviral activity was maintained: 30 to 32 days
  time to maximal HBsAg and HBeAg inhibition after initiation of treatment: 12 to 17 days
[7]; single two-hour pulse dose, 10 μM, donor
  time inhibition of HBeAg and HBsAg was sustained following a pulse dose: up to 20 days
